This note sets out measurements from PMC7672424 (Nucleic Acids Research, 2020).

Test [1] deals with A549 cells. Briefly: Annexin V-FITC/PI apoptosis detection. The test is classed as cell-based, human. Conditions: A549, 3 μM, 24 h. The method, then:
The A549 cells treated with BMPQ-1 or DMSO were washed twice with PBS and detected using the annexin V-FITC/PI apoptosis detection kit (DOJINDO, Japan). The cells were pelleted and resuspended in the binding buffer. Annexin V-FITC and PI were added, and the cells were disturbed by gently vortexing the samples prior to incubation for 5 min in the dark. Emitted florescence was quantitated by flow cytometry (BD FacsAria, USA). For each analysis, 2.0 × 10^4 events were collected.
Figure S10. BMPQ-1 induced cell apoptosis of A549. (A) Apoptosis evaluation of A549 cells after 24 h treatment with various concentrations of BMPQ-1. The cells were collected and stained with Annexin V–FITC and PI. Region LL represents the viable cells; LR represents the early apoptotic cells; UR represents the late apoptotic cells; UL represents damaged cells and cell debris.
(B) Percentage of apoptosis in A549 cells. […]

For test [2], the system named is TTA45 (DNA, G4) GGGTTAGGGTTAGGGTTAGGGTTAGGGTTAGGGTTAGGGTTAGGG
Briefly: CD melting. Conditions: 50 mM K+; 10 mM Tris-HCl pH 7.4; 5 µM DNA, 20 µM compound.

In test [3] the test system is TTA. Conditions: CD melting; 5 µM DNA, 20 µM compound; 10 mM Tris-HCl, 50 mM KCl, pH 7.4.
Protocol: CD studies were performed on a Chirascan circular dichroism spectrophotometer (Jasco, Easton, MD, USA). A quartz cuvette with a 1 mm path length was used to record the spectra over a wavelength range of 220–320 nm with a 1 nm bandwidth. All the samples were prepared in buffer containing 10 mM Tris–HCl pH 7.4, 100 mM KCl. To ensure the concentrations of G-quadruplex units to be 20 μM, multiple G-quadruplexes forming oligonucleotides with different concentrations were used (TTA (G1) 20 μM, TTA45 (G2) 10 μM, TTA69 (G3) 6.67 μM, TTA93 (G4) 5 μM, TTA117 (G5) 4 μM, TTA141 (G6) 3.33 μM). The DNA samples were heated at 95°C for 5 min and cooled down slowly to room temperature. […] Melting curves were measured at 295 nm and the range of temperature was 4–95°C.
a Melting temperature (T ) of 5 µM DNA samples with and without 20 µM BMPQ-1 analogs in 10 mM Tris-HCl
buffer (50 mM KCl, pH 7.4) was determined by circular dichroism spectroscopy, and ΔTm/°C were derived by

On to `Cc1ccc(Cn2cc3c(-c4ccc5c(c4)OCO5)nnc-3c3cc4c(cc32)OCO4)cc1` [BMPQ-1], for which the “population of apoptotic cells” value in test [1] is “approximately 60%”. The thermal shift (ΔTm) in test [2] stood at 14.6 °C. Also, in test [3], the “ΔTm (°C) TTA” value is 8.4 °C.
